The values that follow come from patent US6849576B2, “Plant-activating agent” (Kao Corporation, priority 2000, dated 2005).

Experiment [1] deals with liverwort callus cells. As to the kind of experiment: Reproduction of green cells: liverwort callus cultivation, fresh weight at 10th day. It counts as cell-based, liverwort (Harchantia polymorpha L.). Conditions: liverwort callus fresh weight at 10th day (240 hours); relative value, control area = 100; concentrations (ppm) as in Table 7. The protocol:
In case of a unicellular organism, an individual of this organism can be used itself as a green cell. […] When chlorella is used, a test substance acting as a plant-activating agent is added to an inorganic salt medium for chlorella (test area), and the number of cells (cells/ml) when cultivation is conducted for a certain period can be compared with the number of cells (cells/ml) in the non-added system cultivated under the same condition (control area), for calculation. Further, cells in the form of callus can also be used. As the callus, a liverwort (Harchantia polymorpha L.) callus may be exemplified. When a callus is used, the test substance acting as a plant-activating agent is added to e.g. a sterilized medium for calluses (test area), and the weight of callus when cultivation is conducted for a certain period can be compared with the weight of callus of the non-added system cultivated under the same condition (control area), for calculation. In any case, the concentration of the test substance in the test area is not limited but suitably from 0.1 to 1000 ppm in terms of effective components.
100 ml of the medium (MSK2 medium) for liverworts were placed into a 500-ml Erlenmeyer flask, and the flask was capped with a silicon cap having its ventilative property and placed into an autoclave (at a high temperature, under a high pressure, and a sterilized oven) to sterilize the medium (for 20 minutes). Herein, the substance acting as the plant-activating agent was added in a concentration shown in Table 7 into a culturing solution in the test area. After sterilization, the temperature of the medium was returned to a normal temperature. 2 ml of liverwort callus cells under a steady state, which had been sub-cultivated previously, were sucked up by a 2-ml Komagome pipette (measuring pipet) and incubated to the sterilized medium. These operations are conducted in a clean bench when sterilized condition is necessary. Cultivation is carried out in a shaking incubator rotating at 110 rpm at 23° C. under continuous illumination (with illuminance of 10 klx.) with carbon dioxide and humidity under natural conditions. Tenth day (after 240 hours) after starting the cultivation, the whole culturing solution in each area was filtrated under suction, and the fresh weight (raw weight) (g) of the callus cell was measured. This was made as the amount in reproduction of green cells, and the improved degree in reproduction of green cells was measured by the above-described formula.

Experiment [2] has as its system tomato “Momotato”. As to the kind of experiment: Tomato pot test, soil treatment: SPAD value, dry weight, leaf-area, ascorbic acid and nitrate ion in the blade part. In kind it is in vivo. Conditions: for Concentration of ascorbic acid in the blade part / Concentration of nitrate ion in the blade part / Dry weight of plant / Leaf-area: 3rd day after 7th treatment, relative to control area = 100; for SPAD value: soil treated 7 times weekly, about 50 ml per pot, in 3000-fold Otsuka OKF2, 3rd day after 7th treatment, control area 34.3. The protocol: (§1) The SPAD values in the test and control areas grown under the same conditions are measured by Minolta Chlorophyll Meter SPAD 502 (supplied by Minolta Co., Ltd.). This is an apparatus to measure the amount of chlorophyll of plants (leaves) without destruction. Raw leaves are inserted into this apparatus and irradiated with light (stroboscopic emission by a xenon lamp). The transmission light is passed through a filter having 670 nm of the maximum wavelength to be absorbed by chlorophyll and another filter having 750 nm of the non-specific absorption band of a polymer such as protein, the difference in light absorption amounts at both wavelengths is measured by an integrated circuit and converted digitally, and then the value is expressed. The value is indicated in terms of numerical values between zero to 80 (SPAD value). The SPAD value has a high correlation with the chlorophyll content per unit area of a leaf. The following regression formula is satisfied between the value (X) measured by SPAD 502 and the chlorophyll content (Y) (mg/100 cm^2) (Shokubutsu Eiyo Jikken Ho (translated as Method for testing nutrition of plants), 2nd press., pp. 366-367 issued on Apr. 20th, 1991 by Hakuyu Sha K. K.).
(§2) The improved degree of the SPAD value in the present invention is calculated as follows: Improved degree of the SPAD value=(SPAD value in test area)−(SPAD value in control area).
(§3) The measuring time of the SPAD is not limited but only necessitates that the area of a leaf of the plant reaches to an area (about 5 mm×5 mm or more) measurable by a SPAD meter after a treatment with the substance acting as the plant-activating agent. The measurement of the SPAD value is carried out at least 20 times on the same leaf position of a plant treated with the substance acting as the plant-activating agent and of another plant not treated with the substance acting as a plant-activating agent, and the average value thereof is used.
(§4) The increased amount in weight of a plant (b) is calculated from fresh weights or dry weights in the test area and control area in which plants have been grown under the same conditions, like in the above-mentioned [i]. […] The weight of a plant is measured as follows. Each and all plants treated with the substance acting as the plant-activating agent (test area) and not treated with the substance acting as the plant-activating agent (control area) are taken out of a cultivation apparatus (e.g. a pot), soil and contaminations adhering to roots are washed away by running water sufficiently, and respective weights are measured (fresh weight). Each of the plants is dried at 70° C. for 5 days and the weight thereof after the drying is measured (dry weight). Increased amounts in weight of plants are calculated respectively by the following manner. Herein, though any of the fresh weight and dry weight may be calculated, the dry weight is preferably calculated for directly reflecting the net weight of an anabolite (assimilate). Increased amount (%) in weight (fresh weight) of a plant=[(fresh weight in test area−fresh weight in control area)/(fresh weight in control area)]×100 Increased amount (%) in weight (dry weight) of a plant=[(dry weight in test area−dry weight in control area)/(dry weight in control area)]×100
(§5) The improved degree of leaf-area of a plant (c) is calculated from leaf-area of whole plants in the test area and control area in which plants have been grown in the same conditions, like in the above-mentioned [i]. The improved degree is preferably not less than 5%, more preferably not less than 7% and most preferably not less than 9%. In the present invention, the improved degree of leaf-area is measured using an automatic planimeter AAC-400 model (supplied by Hayashi Denko K. K.). This automatic planimeter is a device to detect, by a photo-electric element, the extent of blockage of scanning beam by a sample. According to this device, the minimum unit is 1 mm^2, the maximum display number can be shown up to 99999.99 cm^2. […]

In experiment [3] the test system is spinach “Esper”. As to the kind of experiment: Spinach pot test, soil treatment: SPAD value, dry weight, leaf-area, ascorbic acid and nitrate ion in the blade part. In kind it is in vivo. Conditions: 3rd day after 5th treatment; for Concentration of ascorbic acid in the blade part / Concentration of nitrate ion in the blade part / Dry weight of plant / Leaf-area: relative to control area = 100; for SPAD value: soil treated 5 times weekly, about 150 ml per pot, in water, control area 43.1. The procedure:
as §1, §2, §3, §4, §5

`O=C([O-])CCC(=O)[O-].[Na+].[Na+]` [Comparative product 5-2, Sodium succinate, reference compound]: in experiment [1], the “Improved degree in reproduction of green cells” value (“Improved degree in reproduction” below) is 91.

As for `O=C([O-])CN(CCN(CC(=O)[O-])CC(=O)[O-])CC(=O)[O-].[Na+].[Na+].[Na+].[Na+]` [Comparative product 5-3, EDTA-4Na, reference compound], in experiment [1], the “Improved degree in reproduction” value turned out to be 90.

Turning to `CCCCCCCCCCCCCCCCCCOCCCCCCCCCCCCCCCCCC` [Inventive product 3-9, Distearyl ether], in experiment [2], the “Concentration of ascorbic acid in the blade part” value (“Concentration of ascorbic acid” for short) turned out to be 134%, the “Concentration of nitrate ion in the blade part” value (from here on “Concentration of nitrate ion”) is listed as 79%, the “Dry weight of plant” value came to 120% and the Leaf-area amounted to 112%. The same compound displayed an SPAD value in experiment [2] of 38.1 point.

For `CC(C)C[C@H](N)C(=O)O` [Inventive product 4-6, L-leucine], in experiment [3], the “Concentration of ascorbic acid” value is 113%, the “Concentration of nitrate ion” value came to 85%, the “Dry weight of plant” value was 118% and the Leaf-area was found to be 110%. In experiment [3], this compound displayed an SPAD value of 49.0 point.

For the compound `CCCCCCCCCCCCCCCCCCOCCCCCCCCCCCCCCCCCC` [Inventive product 4-9, Distearyl ether], in experiment [3], the “Concentration of ascorbic acid” value is 120%, the “Concentration of nitrate ion” value amounted to 73%, the “Dry weight of plant” value worked out at 116% and the Leaf-area came to 111%. In experiment [3], the SPAD value came out at 49.5 point.

Consider `CCCCCCCCCCCCCCCCCC(=O)O` [Inventive product 5-1, Stearic acid], for which the “Improved degree in reproduction” value in experiment [1] was found to be 120.

On to `CCCCCCCCCCCCCCCC(=O)O` [Inventive product 5-2, Palmitic acid], for which, in experiment [1], the “Improved degree in reproduction” value came out at 110.

On to `O=S(=O)([O-])CCO.[Na+]` [Inventive product 5-3, Sodium isethionate], for which, in experiment [1], the “Improved degree in reproduction” value is reported as 115.

As to `N[C@@H](CCC(=O)[O-])C(=O)[O-].[Na+].[Na+]` [Inventive product 5-4, Sodium glutamate], in experiment [1], the “Improved degree in reproduction” value was found to be 105.

Take “Hexaglycerol monostearate [Inventive product 3-16]”: in experiment [2], the “Concentration of ascorbic acid” value is given as 119%, the “Concentration of nitrate ion” value was 84%, the “Dry weight of plant” value stood at 115% and the Leaf-area worked out at 108%. This compound also yielded an SPAD value in experiment [2] of 36.8 point.

On to “POE(1) stearyl ether [Inventive product 3-11]”, for which, in experiment [2], the “Concentration of ascorbic acid” value stood at 116%, the “Concentration of nitrate ion” value is recorded as 89%, the “Dry weight of plant” value worked out at 114% and the Leaf-area is reported as 108%. Further, in experiment [2], the SPAD value was 37 point.

For “POE(1) stearyl ether [Inventive product 4-11]”, in experiment [3], the “Concentration of ascorbic acid” value is reported as 114%, the “Concentration of nitrate ion” value is 86%, the “Dry weight of plant” value was 112% and the Leaf-area is listed as 110%. In experiment [3], this compound came in with an SPAD value of 46.8 point.

Turning to “POE(6) sorbitan monolaurate [Comparative product 3-3]”, in experiment [2], the “Concentration of ascorbic acid” value is listed as 101%, the “Concentration of nitrate ion” value is listed as 99%, the “Dry weight of plant” value is on record as 100% and the Leaf-area came to 102%. Besides, the SPAD value in experiment [2] turned out to be 35.0 point.

“POE(8) oleyl ether [Comparative product 3-2]”: in experiment [2], the “Concentration of ascorbic acid” value came out at 102%, the “Concentration of nitrate ion” value stood at 98%, the “Dry weight of plant” value was 101% and the Leaf-area worked out at 103%. Moreover, in experiment [2], the SPAD value is listed as 35.0 point.

Regarding “POE(20) sorbitan monooleate [Comparative product 3-1]”, in experiment [2], the “Concentration of ascorbic acid” value stood at 100%, the “Concentration of nitrate ion” value is recorded as 99%, the “Dry weight of plant” value is recorded as 103% and the Leaf-area came to 102%. Also, the SPAD value in experiment [2] is on record as 35.1 point.

Consider “POE(20) sorbitan monooleate [Comparative product 4-1, reference compound]”, for which, in experiment [3], the “Concentration of ascorbic acid” value is on record as 98%, the “Concentration of nitrate ion” value is listed as 100%, the “Dry weight of plant” value came out at 101% and the Leaf-area is given as 96%. This compound gave an SPAD value in experiment [3] of 43.5 point.

For the compound “POE(20) sorbitan tristearate [Comparative product 3-5]”, in experiment [2], the “Concentration of ascorbic acid” value amounted to 102%, the “Concentration of nitrate ion” value was 98%, the “Dry weight of plant” value is 101% and the Leaf-area is 101%. In experiment [2], the SPAD value came to 35.1 point.

As to “Sodium POE(3) lauryl ether sulfate [Comparative product 3-4]”, in experiment [2], the “Concentration of ascorbic acid” value is reported as 101%, the “Concentration of nitrate ion” value is listed as 100%, the “Dry weight of plant” value is 100% and the Leaf-area stood at 100%. In experiment [2], this compound had an SPAD value of 34.9 point.

Turning to “Sodium POE(3) lauryl ether sulfate [Comparative product 4-2, reference compound]”, in experiment [3], the “Concentration of ascorbic acid” value amounted to 95%, the “Concentration of nitrate ion” value is on record as 101%, the “Dry weight of plant” value was found to be 98% and the Leaf-area was 95%. For the same compound, the SPAD value in experiment [3] is 42.5 point.

As to Vitamin B12 [Inventive product 4-2], in experiment [3], the “Concentration of ascorbic acid” value came to 111%, the “Concentration of nitrate ion” value is 85%, the “Dry weight of plant” value is 115% and the Leaf-area is listed as 108%. This compound displayed an SPAD value in experiment [3] of 45.9 point.
